“And” between values parts separate entries of the source, which are not always exact repeats. Identical values can stand only once.
Tests used:
[1] = test system: pS6 Ser235/236; assay: Western blot of S6 phosphorylation in BaF3/MPL cells; assay type: cell-based; settings: 2 h, then TPO 50 ng/mL 10 min, vs vehicle
Method: (§1) In addition, Compound B was examined for the effects on the PI3K signaling pathway by determining the levels of AKT and S6 phosphorylation with or without TPO activation. Two cell lines, BaF3/MPL and UT-7/TPO sensitive or responsive to TPO activation were used. The cells were starved (i.e. growing on medium having less FBS) in […] FBS/RPMI for two hours before treated with 0.1, 1.0, or 2.0 μM of Compound B or vehicle (0.1% DMSO in RPMI) for 2 hours at 37° C. To examine the TPO-activated phosphorylation, the cells were then treated or activated with 50 ng/mL of human recombinant TPO (Peprotech) for 10 minutes at 37° C. The TPO activation or treatment may reflect the conditions in diseased cells as the PI3K pathway is activated by TPO in myelofibrosis. After treating with compound and/or TPO, the cells were collected, lysed by lysis buffer (Cell Signaling), separated by SDS-PAGE, and analyzed by the Western blot using antibodies specific to p-AKT Ser473 or pS6 Ser235/236 (Cell Signaling). The phosphorylation levels in treated cells were calculated and compared to those of untreated cells (i.e. vehicle as negative control).

[2] = test system: p-STAT5; assay: flow cytometry of p-STAT5 in TPO-stimulated CD34+ cells from MF patients on chronic ruxolitinib (Example 8); assay type: cell-based, human; settings: 2 h, then TPO 50 ng/mL, one value per patient, TPO vehicle = 100
Method: In this study, PBMCs were isolated from the whole blood from five MF patients receiving chronic ruxolitinib treatment (rux 1-rux 5). The cells were treated with either vehicle, ruxolitinib, and/or Compound B for 2 hours then stimulated with TPO (50 ng/mL) for 10 minutes. Ruxolitinib at the dose of 1 or 20 nM and Compound B at the dose of 45, 200, or 700 nM were used.
The treated cells were then fixed, permeabilized and stained for FACS analysis using FACSCalibur analyzed using BD FACSDiva software.

[3] = test system: pS6 Ser235/236; assay: Western blot of S6 phosphorylation in UT-7/TPO cells; assay type: cell-based; settings: 2 h, then TPO 50 ng/mL 10 min, vs vehicle
Method: as §1

[4] = test system: pS6RP Ser235/236; assay: flow cytometry of S6RP phosphorylation in CD34+ progenitor cells from MF patients; assay type: cell-based, human; settings: for normalized percentage of TPO-activated S6RP phosphorylation (p-S6RP): 2.0 μM, then TPO, one value per patient, TPO-treated vehicle = 100
Method: (§2) In this example, PBMCs were isolated from whole blood of myelofibrosis (MF) patients who had not received treatments (i.e. naïve patients) or received ruxolitinib (i.e. rux-treated patients). The cells were treated with 0.02, 0.2, or 2.0 μM of Compound B or vehicle (0.1% DMSO in 0.1% FBS/RPMI) for 2 hours at 37° C. The cells were then fixed, permeabilized, and stained for FACS analysis. Antibodies specific to p-AKT Ser473 and pS6RP Ser235/236 were used to detect AKT phosphorylation (p-AKT) and S6RP phosphorylation (p-S6RP) in CD34^+/CD3^−/CD14^−/CD19/CD66^− (BD Biosciences) gated cells using flow cytometry. The percentage of basal (i.e. untreated with TPO) AKT and S6RP phosphorylation were normalized to vehicle control (i.e. “no TPO” values shown in Table 2). A two-tailed paired t-test (GraphPad Prism) was used to calculate p-values. Values of p<0.05 were considered significant.
(§3) Also, PBMC cells were treated with Compound B and with TPO as described above. The percentage of TPO-activated AKT and S6RP phosphorylation were normalized to those of TPO-treated vehicle. […] Also, the inhibition to PI3K signaling was dose-dependent to Compound B.
(§4) Similar studies were conducted with PI3K inhibitors Compounds C and D. PBMC from MF patients had received ruxolitinib (rux) and MF patient had received Compound A. The cells were treated with Compounds C or D at 0, 20.0, 200.0, 2000.0 nM for 2 hours at 37° C. Cells were treated with TPO for 10 minutes. The percentage of basal p-AKT and p-S6RP levels were normalized to vehicle control and those of TPO-treated were normalized to TPO-treated vehicle control. The PI3K inhibitors Compounds C and D had the chemical names of (S)-2-(1-((9H-purin-6-yl)amino)ethyl)-6-fluoro-3-phenylquinazolin-4(3H)-one and (S)-2,4-diamino-6-(((5-chloro-8-fluoro-4-oxo-3-(pyridine-3-yl)-3,4-dihydroquinazolin-2-yl)(cyclopropyl)methyl)amino)pyrimidine-5-carbonitrile, respectively.

[5] = test system: p-AKT Ser473; assay: flow cytometry of AKT phosphorylation in CD34+ progenitor cells from MF patients; assay type: cell-based, human; settings: 2.0 μM
Method: as §2, §3, §4

[6] = test system: p-AKT Ser473; assay: Western blot of AKT phosphorylation in BaF3/MPL cells; assay type: cell-based; settings: 2 h, then TPO 50 ng/mL 10 min, vs vehicle
Method: as §1

Compound: CC[C@H](Nc1ncnc2[nH]cnc12)c1nc2cccc(F)c2c(=O)n1-c1ccccc1 [Compound B, (S)-2-(1-((9H-purin-6-yl)amino)propyl)-5-fluoro-3-phenylquinazolin-4(3H)-one]
- reduced p-S6 levels ([1]; 0.1 μM): 24%
- reduced p-S6 levels ([1]; 1.0 μM): 27%
- reduced p-S6 levels ([1]; 2.0 μM): 41%
- percentage of the p-STAT5 levels ([2]; Compound B 45 nM): 92% (2×) and 85% and 95% and 83%
- percentage of the p-STAT5 levels ([2]; Compound B 200 nM): 93% and 83% and 91% and 72% and 90%
- percentage of the p-STAT5 levels ([2]; Compound B 700 nM): 88% and 86% and 82% and 106% and 78%
- reduced p-S6 levels ([3]; 0.1 μM): 13%
- reduced p-S6 levels ([3]; 1.0 μM): 28%
- reduced p-S6 levels ([3]; 2.0 μM): 48%
- normalized percentage of TPO-activated S6RP phosphorylation (p-S6RP) ([4]; progenitor cells of naïve MF patients): 23% and 45%
- normalized percentage of TPO-activated S6RP phosphorylation (p-S6RP) ([4]; progenitor cells of rux-treated MF patients): 21% and 45% and 36% and 20% and 31%
- basal p-S6RP levels ([4]; 0.02-2.0 μM, 2 h, no TPO, MF progenitor cells vs untreated, data not shown): reduced levels
- normalized percentage of TPO-activated AKT phosphorylation (p-AKT) ([5]; then TPO, progenitor cells of rux-treated MF patients, one value per patient, TPO-treated vehicle = 100): 40% and 29% and 35% and 16% (2×)
- normalized percentage of p-AKT ([5]; progenitor cells from Compound A-treated MF patients, one value per subject, column 0 = 100): 24% and 55% and 30%
- reduced p-AKT levels ([6]; 0.1 μM): 51%
- reduced p-AKT levels ([6]; 1.0 μM): 64%

Source: patent US20160279135A1, “THERAPIES FOR TREATING MYELOPROLIFERATIVE DISORDERS” (Gilead Sciences, Inc., priority 2013, published 2016)
